Values of other authors in US20260102351A1, “LYOPHILIZED FORMULATION OF CROFELEMER AND METHODS OF TREATMENT USING THE SAME” (priority 2022, published 2026).

Details: human, in vivo

Crofelemer
absorption from the GI tract: little or no absorption | systemic bioavailability in humans: virtually no systemic bioavailability | tolerability: well tolerated
